The results in this text go back to patent US7494997B2, “Amide derivative” (Nippon Shinyaku Co., Ltd., priority 2002, dated 2009).

One data set has as its system K562 cells. The data set is described as follows: Cell growth inhibitory effect, K562 cells (WST-8, 72 hours). The conditions noted are these: for IC50: Homo sapiens, K562, 72 h, read-out: K562 cells (IC50 value: μM); for Ratio (U937 cells/K562 cells): ratio of IC50 values U937 cells/K562 cells.
The subject of another data set is U937 cells. Put plainly: Cell growth inhibitory effect, U937 cells (WST-8, 72 hours). Particulars: Homo sapiens, U-937, 72 h, read-out: U937 cells (IC50 value: μM).

In general, IC50 refers to the concentration that gives 50% inhibition. The melting point is the temperature of the solid-liquid transition. For `Cc1ccc(NC(=O)c2ccc(CN3CCN(C)CC3)c(C(F)(F)F)c2)cc1Nc1nccc(-c2cccnc2)n1` [Example 5, 4-(4-methylpiperazin-1-ylmethyl)-3-trifluoromethyl-N-{4-methyl-3-[4-(3-pyridyl)pyrimidin-2-ylamino]phenyl}benzamide], the melting point is 182 to 183 °C (dec.). The IC50 in the data set on K562 cells was 0.0008 µM. Moreover, in the data set with U937 cells, the 50% inhibitory concentration (IC50) was 3.99 µM.

With `Cc1ccc(NC(=O)c2ccc(CN3CCN(C)CC3)c(C(F)(F)F)c2)cc1Nc1nccc(-c2cncnc2)n1` [Example 6, 4-(4-methylpiperazin-1-ylmethyl)-3-trifluoromethyl-N-{4-methyl-3-[4-(5-pyrimidinyl)pyrimidin-2-ylamino]phenyl}benzamide], the melting point is 231 to 233 °C (dec.). For the same compound, the IC50 with K562 cells is 0.0005 µM. In the data set with U937 cells, the IC50 turned out to be 5.39 µM.

`Cc1ccc(NC(=O)c2ccc(CN3CCN(C)CC3)c(Br)c2)cc1Nc1cc(-c2cccnc2)ccn1` [Example 14, 3-bromo-4-(4-methylpiperazin-1-ylmethyl)-N-{4-methyl-3-[4-(3-pyridyl)pyridin-2-ylamino]phenyl}benzamide]: the melting point was 244 to 245 °C (dec.). In the data set with K562 cells, the IC50 was 0.003 µM and the “Ratio (U937 cells/K562 cells)” value is reported as greater than 3333.3. In addition, the IC50 in the data set with U937 cells is greater than 10 µM.

Consider `Cc1ccc(NC(=O)c2ccc(CN3CCN(C)CC3)c(Br)c2)cc1Nc1cc(-c2cncnc2)ccn1` [Example 15, 3-bromo-4-(4-methylpiperazin-1-ylmethyl)-N-{4-methyl-3-[4-(5-pyrimidinyl)pyridin-2-ylamino]phenyl}benzamide], for which the melting point was 244 to 246 °C (dec.). In addition, in the data set on K562 cells, the IC50 is 0.0048 µM and the “Ratio (U937 cells/K562 cells)” value worked out at 1895.8. Further, the 50% inhibitory concentration (IC50) in the data set on U937 cells was found to be 9.1 µM.

`Cc1cc(C(=O)Nc2ccc(C)c(Nc3nccc(-c4cccnc4)n3)c2)ccc1CN1CCN(C)CC1` [Example 21, 3-methyl-4-(4-methylpiperazin-1-ylmethyl)-N-{4-methyl-3-[4-(3-pyridyl)pyrimidin-2-ylamino]phenyl}benzamide] returned a melting point of 192 to 193 °C. For the same compound, in the data set with K562 cells, the IC50 is 0.0053 µM and the “Ratio (U937 cells/K562 cells)” value is listed as greater than 1886.8. Moreover, in the data set on U937 cells, the IC50 was greater than 10 µM.

Consider `COc1cc(C(=O)Nc2ccc(C)c(Nc3nccc(-c4cccnc4)n3)c2)ccc1CN1CCN(C)CC1` [Example 23, 3-methoxy-4-(4-methylpiperazin-1-ylmethyl)-N-{4-methyl-3-[4-(3-pyridyl)pyrimidin-2-ylamino]phenyl}benzamide], for which the melting point is 171 to 172 °C (dec.). Moreover, in the data set with K562 cells, the IC50 is 0.0094 µM and the “Ratio (U937 cells/K562 cells)” value is listed as greater than 1063.8. In addition, in the data set with U937 cells, the IC50 was greater than 10 µM.

`Cc1ccc(NC(=O)c2cc(Br)c(CN3CCN(C)CC3)c(Br)c2)cc1Nc1nccc(-c2cccnc2)n1` [Example 24, 3,5-dibromo-4-(4-methylpiperazin-1-ylmethyl)-N-{4-methyl-3-[4-(3-pyridyl)pyrimidin-2-ylamino]phenyl}benzamide] came in with a melting point of 227 to 229 °C. Besides, in the data set with K562 cells, the half-inhibitory concentration (IC50) was 0.0015 µM and the “Ratio (U937 cells/K562 cells)” value worked out at 4860.0. Also, the half-maximal inhibitory concentration (IC50) in the data set with U937 cells was determined as 7.29 µM.

In the case of `COc1cc(C(=O)Nc2ccc(C)c(Nc3nccc(-c4cccnc4)n3)c2)cc(OC)c1CN1CCN(C)CC1` [Example 25, 3,5-dimethoxy-4-(4-methylpiperazin-1-ylmethyl)-N-{4-methyl-3-[4-(3-pyridyl)pyrimidin-2-ylamino]phenyl}benzamide], the melting point is 201 to 214 °C (dec.). Also, in the data set with K562 cells, the IC50 is 0.03 µM and the “Ratio (U937 cells/K562 cells)” value is listed as 566.7. Further, in the data set on U937 cells, the 50% inhibitory concentration (IC50) was found to be 17 µM.

`CCCN1CCN(Cc2ccc(C(=O)Nc3ccc(C)c(Nc4nccc(-c5cccnc5)n4)c3)cc2Br)CC1` [Example 28, 3-bromo-4-[4-(n-propyl)piperazin-1-ylmethyl]-N-{4-methyl-3-[4-(3-pyridyl)pyrimidin-2-ylamino]phenyl}benzamide]: the melting point was in the range of 204 to 205 °C. Further, in the data set on K562 cells, the 50% inhibitory concentration (IC50) was found to be 0.00065 µM and the “Ratio (U937 cells/K562 cells)” value is 10723.1. In addition, the IC50 with U937 cells came out at 6.97 µM.

Compound `Cc1ccc(NC(=O)c2ccc(CN(C)C)c(Br)c2)cc1Nc1nccc(-c2cccnc2)n1` [Example 29, 3-bromo-4-(N,N-dimethylaminomethyl)-N-{4-methyl-3-[4-(3-pyridyl)pyrimidin-2-ylamino]phenyl}benzamide] had a melting point of 154 to 155 °C. Further, in the data set with K562 cells, the IC50 is 0.017 µM and the “Ratio (U937 cells/K562 cells)” value is recorded as greater than 588.2. Besides, the IC50 in the data set with U937 cells was greater than 10 µM.

Consider `CCN(CC)Cc1ccc(C(=O)Nc2ccc(C)c(Nc3nccc(-c4cccnc4)n3)c2)cc1Br` [Example 30, 3-bromo-4-(N,N-diethylaminomethyl)-N-{4-methyl-3-[4-(3-pyridyl)pyrimidin-2-ylamino]phenyl}benzamide], for which the melting point is 172 to 173 °C. Further, in the data set on K562 cells, the IC50 was 0.022 µM and the “Ratio (U937 cells/K562 cells)” value is recorded as greater than 454.5. The IC50 in the data set with U937 cells was greater than 10 µM.

`Cc1ccc(NC(=O)c2ccc(CN3CCCN(C)CC3)c(Br)c2)cc1Nc1nccc(-c2cccnc2)n1` [Example 35, 3-bromo-4-(4-methyl-hexahydro-1H-1,4-diazepin-1-ylmethyl)-N-{4-methyl-3-[4-(3-pyridyl)pyrimidin-2-ylamino]phenyl}benzamide] showed a melting point of 156 to 157 °C. Also, in the data set on K562 cells, the 50% inhibitory concentration (IC50) is 0.0075 µM and the “Ratio (U937 cells/K562 cells)” value is 696.0. Moreover, in the data set on U937 cells, the IC50 was 5.22 µM.

Turning to `COC(=O)c1cc(C(=O)Nc2ccc(C)c(Nc3nccc(-c4cccnc4)n3)c2)ccc1CN1CCN(C)CC1` [Example 39, 3-methoxycarbonyl-4-(4-methylpiperazin-1-ylmethyl)-N-{4-methyl-3-[4-(3-pyridyl)pyrimidin-2-ylamino]phenyl}benzamide], the melting point was 159 to 161 °C (dec.). Also, in the data set on K562 cells, the IC50 came to 0.035 µM and the “Ratio (U937 cells/K562 cells)” value is reported as greater than 285.7. Besides, the concentration for half-maximal inhibition (IC50) in the data set with U937 cells is greater than 10 µM.

For the compound `Cc1ccc(NC(=O)c2ccc(CN3CCN(C)CC3)c(C#N)c2)cc1Nc1nccc(-c2cccnc2)n1` [Example 40, 3-cyano-4-(4-methylpiperazin-1-ylmethyl)-N-{4-methyl-3-[4-(3-pyridyl)pyrimidin-2-ylamino]phenyl}benzamide], the melting point is 191 to 193 °C (dec.). Besides, in the data set on K562 cells, the IC50 came to 0.0054 µM and the “Ratio (U937 cells/K562 cells)” value turned out to be 777.8. In the data set on U937 cells, the concentration for half-maximal inhibition (IC50) was found to be 4.2 µM.
